Source: ChEMBL document CHEMBL1136148, “Tetrabiphenylporphyrin-based receptors for protein surfaces show sub-nanomolar affinity and enhance unfolding” (Bioorg Med Chem Lett, 2003)

Test: Binding ability of the receptor to the surface of Cytochrome c and activity expressed as Dissociation constant(Kd)
Set-up: species or system Equus caballus

COC(=O)[C@H](CC(=O)O)NC(=O)c1cc(C(=O)N[C@@H](CC(=O)O)C(=O)OC)cc(-c2ccc(-c3c4nc(c(-c5ccc(-c6cc(C(=O)N[C@@H](CC(=O)O)C(=O)OC)cc(C(=O)N[C@@H](CC(=O)O)C(=O)OC)c6)cc5)c5ccc([nH]5)c(-c5ccc(-c6cc(C(=O)N[C@@H](CC(=O)O)C(=O)OC)cc(C(=O)N[C@H](CC(=O)O)C(=O)OC)c6)cc5)c5nc(c(-c6ccc(-c7cc(C(=O)N[C@@H](CC(=O)O)C(=O)OC)cc(C(=O)N[C@@H](CC(=O)O)C(=O)OC)c7)cc6)c6ccc3[nH]6)C=C5)C=C4)cc2)c1
Kd: 1700 nM

O=C(O)c1cc(C(=O)O)cc(-c2ccc(-c3c4nc(c(-c5ccc(-c6cc(C(=O)O)cc(C(=O)O)c6)cc5)c5ccc([nH]5)c(-c5ccc(-c6cc(C(=O)O)cc(C(=O)O)c6)cc5)c5ccc([nH]5)c(-c5ccc(-c6cc(C(=O)O)cc(C(=O)O)c6)cc5)c5nc3C=C5)C=C4)cc2)c1
Kd: 1500 nM

O=C(O)C[C@H](NC(=O)c1cc(C(=O)N[C@@H](CC(=O)O)C(=O)O)cc(-c2ccc(-c3c4nc(c(-c5ccc(-c6cc(C(=O)N[C@@H](CC(=O)O)C(=O)O)cc(C(=O)N[C@@H](CC(=O)O)C(=O)O)c6)cc5)c5ccc([nH]5)c(-c5ccc(-c6cc(C(=O)N[C@@H](CC(=O)O)C(=O)O)cc(C(=O)N[C@H](CC(=O)O)C(=O)O)c6)cc5)c5nc(c(-c6ccc(-c7cc(C(=O)N[C@@H](CC(=O)O)C(=O)O)cc(C(=O)N[C@@H](CC(=O)O)C(=O)O)c7)cc6)c6ccc3[nH]6)C=C5)C=C4)cc2)c1)C(=O)O
Kd: 0.67 nM

O=C(O)c1ccc(-c2ccc(-c3c4nc(c(-c5ccc(-c6ccc(C(=O)O)cc6)cc5)c5ccc([nH]5)c(-c5ccc(-c6ccc(C(=O)O)cc6)cc5)c5ccc([nH]5)c(-c5ccc(-c6ccc(C(=O)O)cc6)cc5)c5nc3C=C5)C=C4)cc2)cc1
Kd: 17000 nM
